Key:
p-ERK = experiment: Immunoblot of ERK phosphorylation, U373MG cells; format: cell-based, human; settings: 50 μM pre-incubation 30 minutes, then PD 10 μM 24 hours
Protocol: FIGS. 10A to 10D show the results that PD-mediated autophagy inhibition is independent of mTOR and MAPK signaling pathways. FIGS. 10A to 10C show the results in which cells were treated with PD (0 μM, 0.5 μM, 1 μM, 5 μM, and 10 μM) for 24 hours. The immunoblot analyses for p-ULK1 (Ser757), ULK1, p-S6K (Thr389), p-AKT (Ser473), ERK2, P-ERK, p-JNK1, Beclin, and ATG7 were performed using lysates from GBMs. […] Total protein extracts were analyzed by immunoblot analyses for p-ERK, LC3B, and SQSTM1. GAPDH was used as an internal control.
(§1) Cells treated with the concentrations and materials described in FIGS. 1-3B, 7, 8, 10, 13, 16, 18, and 20 were lysed in buffer containing 20 mM Tris-HCl (pH 7.5), 150 mM NaCl, 1 mM EDTA, 1 mM Na2EDTA, 1 mM EGTA, 1% NP-40, 1% sodium deoxycholate, 1 mM Na3VO4, 1 mM MPI, 1 mM PMSF, and PI cocktails for 15 to 20 minutes on ice. Cell lysates were separated by SDS-PAGE and transferred to nitrocellulose membranes. […] The protein bands were detected with ECL western Blotting Substrate (Thermo Fisher Scientific, Waltham, Mass., USA).
Previous studies have shown that PD enhances autophagy via mTOR/MAPK pathway. […] It is known that mTORC1 activation, measured by S6K phosphorylation, inhibits autophagy initiation by phosphorylating the ULK1 (Ser 757). […]

LC3B and SQSTM1/p62 = experiment: Immunoblot of autophagy-related proteins (LC3B, SQSTM1/p62) in U373MG cells; format: cell-based, human; settings: 50 μM pre-incubation 30 minutes, then PD 10 μM 24 hours
Protocol: The effects of 26 kinds of herbal medicines, which influence the expression of autophagy-related proteins (LC3B and SQSTM1/p62) in total cell lysates from U87MG and U373MG cells, […] GAPDH was used as a loading control.
The human glioma cell lines, U87MG and U373MG, were cultured respectively in RPMI-1640 (Welgene) and DMEM (Welgene, Daegu, Korea) supplemented with 10% fetal bovine serum (FBS, JR Scientific) and 1% antibiotics (Ab, Welgene). All cultures were maintained at 37° C. in a humidified incubator containing 5% CO2.
as §1
To discover novel autophagy inhibitors, 26 herbal medicines were screened by western blot analysis. […] Therefore, the effect of each herbal medicine on the change in the p62 level was evaluated, given that a rise in the amount of p62 is related to the inhibition of autophaic flux.

COc1cccc(-c2cc(=O)c3ccccc3o2)c1N [PD98095, reference compound]
phosphorylation of ERK (p-ERK): effectively inhibited
levels of LC3B-II and p62 (LC3B and SQSTM1/p62): did not alter

Reference: patent US11351218B2, “Composition for preventing or treating glioblastoma comprising Platycodon grandiflorum A. De Candolle, Scutellaria baicalensis, Phellodendron amurense Ruprecht or Rubus coreanus” (University-Industry Cooperation Group of Kyung Hee …, priority 2019, dated 2022)
